Results from patent publication US5175100A, “Stereospecific resolution by hydrolysis of esters of 2-arylpropionic acids by liver enzymes” (Rhone-Poulenc, Inc., priority 1991, dated 1992).

Experiments:
Format in all cases: biochemical
[1] = system: Liver acetone powder from Calf; experiment: Hydrolysis of ketoprofen esters by calf liver acetone powder; details: Calf powder, 0.2 millimole ester, procedure of Example 1
Protocol: (§1) A solution of 50 mg of ketoprofen methyl ester in 0.2 ml of ethanol was added to 10 mg of each of liver acetone powder from various animal sources (described in Table 1) in 5 ml of 0.1M potassium phosphate buffer (pH 7.0) After shaking at room temperature for 24 hours, the reaction mixtures were acidified to pH 2.0 with 6(N) HCl and extracted with 10 ml of ethyl acetate. A portion of the ethyl acetate extract was analyzed by HPLC on a Partisil 5 ODS-3 RAC column (9.4 mm×100 mm, Whatman) using a mixture of methanol and 10 mM ammonium dihydrogen phospate (9:1) and monitored by UV at 254 nm to determine the percentages of acid produced in the reaction.
(§2) To determine the percentage of R- and S-acid, a portion of the ethyl acetate extract was converted to the amide derivative of the acid produced with R(+)-1-phenylethylamine as follows. The ethyl acetate extract (5 ml) was dried over sodium sulfate, filtered and cooled to 0° C. To the cold solution was added 0.2 ml of N-methylmorpholine followed by 0.2 ml of isobutyl chloroformate. After gentle shaking at 0° C. for 10 minutes, 0.2 ml of R(+)-1-phenylethylamine was added and the shaking was continued at 0° C. for 5 minutes and at room temperature for another 5 minutes. The reaction mixture was washed successively with water (5 ml), 1(N) HCl (5 ml), and water (5 ml) to provide the amide derivative in ethyl acetate solution. The ethyl acetate solution of the amide derivative was then analyzed by HPLC on the same column and same solvent mixture but with a different composition, i.e., a ratio of 6:4, and monitored by UV to determine the percentages of R- acid and S-acids produced by hydrolysis. The enantiomeric excess (EE) is defined as the difference in percent between the percent R- acid and the percent S-acid, the higher enantiomer being reported in the parenthesis in Table I.
(§3) Several esters of ketoprofen (0.2 millimole) with various alkyl groups of varying chain length were hydrolyzed using liver acetone powders from bovine, calf and dog by the procedure described in Example 1. The reaction mixtures were analyzed by the same procedures as described in Example 1 and the results obtained are summarized in Table II.

[2] = system: Liver acetone powder from Bovine; experiment: Hydrolysis of ketoprofen esters by bovine liver acetone powder; details: Bovine powder, 0.2 millimole ester, procedure of Example 1
Protocol: as §1, §2, §3

[3] = system: Liver acetone powder from Dog; experiment: Hydrolysis of ketoprofen esters by dog liver acetone powder; details: Dog powder, 0.2 millimole ester, procedure of Example 1
Protocol: as §1, §2, §3

Structure (SMILES) | EE(%) of R-Acid [1] | Percent of Acid R-Acid [1] | Percent of Acid S-Acid [1] | EE(%) of R-Acid [2] | Percent of Acid R-Acid [2] | Percent of Acid S-Acid [2] | EE(%) of R-Acid [3] | Percent of Acid R-Acid [3] | Percent of Acid S-Acid [3]
CCCCOC(=O)C(C)c1cccc(C(=O)c2ccccc2)c1 (stereo not drawn) [C-4] | 38.2% | 65.6% | 34.4% | 33.4% | 66.7% | 33.3% | 68.8% | 84.4% | 15.6%
CCCCCCOC(=O)C(C)c1cccc(C(=O)c2ccccc2)c1 (stereo not drawn) [C-6] | 42.0% | 71.0% | 29.0% | 45.4% | 72.7% | 27.3% | 35.8% | 67.9% | 32.1%
CCOC(=O)C(C)c1cccc(C(=O)c2ccccc2)c1 (stereo not drawn) [C-2] | 39.2% | 69.6% | 30.4% | 40.6% | 70.3% | 29.7% | 65.0% | 82.5% | 17.5%
CCCOC(=O)C(C)c1cccc(C(=O)c2ccccc2)c1 (stereo not drawn) [C-3] | 38.2% | 69.1% | 30.9% | 41.4% | 70.7% | 29.3% | 68.2% | 84.1% | 15.9%
CCCCCCCCOC(=O)C(C)c1cccc(C(=O)c2ccccc2)c1 (stereo not drawn) [C-8] | 24.2% | 62.1% | 37.9% | 55.8% | 77.9% | 22.1% | 41.4% | 70.7% | 29.3%
